Patent US11998589B2, “PEGylated peptide amphiphile nanofibers and methods of use” (Northwestern University, priority 2020, dated 2024)
Square brackets hold non-standard residues; d marks the D form. Peptide text beside a SMILES is read from it. * marks the point of attachment. PEG10 = NCCOCCOCCOCCOCCOCCOCCOCCOCCOCCOCCC(=O)O; Palmitoyl = CCCCCCCCCCCCCCCC(=O)*

Assays:
[1] = Cytotoxicity (calcein / ethidium homodimer live-dead staining); assay type: cell-based; conditions: human, nHLF cultures, 36 hours culture; for viability at 36 h: normal human lung fibroblasts (nHLF), up to 100 μM PA, read-out: cells staining positive for calcein (percent viable cells)
Experimental: Cytotoxicity: Normal Human Lung Fibroblasts were obtained from Lonza and maintained in growth medium consisting of DMEM with 10% fetal bovine serum (FBS) and 1% penicillin/streptomycin. Cells (passage 5) were tryspinized and resuspended in media containing 2% FBS and 150 μl of the cell suspension was added to each well of a 96 well microplate for a total of 2,500 cells per well. After 2 hours attachment, 50 μl PA solutions diluted in PBS to 4 μM, 20 μM, 100 μM, or 400 μM were added to each well. After 36 hours culture, the media was removed and replaced with a solution of 2 μM calcein and 4 μM ethidium homodimer in PBS. After 30 minutes, cells were imaged using a Cytation 3 microplate reader. Live and Dead cells were counted using the MATLAB image Processing Toolbox to determine viability.

[2] = Resuspension of purified PA in water; assay type: physicochemical; conditions: purified molecule in water
Experimental: Solubilization and Heat Treatment: PA powders were resuspended to 10 mM in water for experiments at pH 7, in 10 mM hydrochloric acid for pH 2 and 10 mM sodium hydroxide for pH 12. After resuspension, 1 M sodium hydroxide or 1 M hydrogen chloride were added to achieve the desired pH. To co-assemble PA molecules, PA solutions were mixed volumetrically, bath sonicated for 1 hour and then left on the bench to age for at least 2 hours. A solution of 150 mM NaCl was added to all samples to achieve a final NaCl concentration of 30 mM. All samples were heat treated at 80° C. for 30 minutes followed by gradual cooling by 1° C. per minute to 25° C.
To produce PA filaments without ionic charge, a short PEG chain was substituted for the ionizable amino acids typically included in PA molecules to maintain solubility of the PA in an aqueous environment. To form an uncharged PA filament, the sequence N-palmitoyl-VVAA was chosen as the aliphatic tail and hydrogen bonding peptide. As the hydrophilic domain, a 10-mer PEG amino acid was selected, which was hypothesized to be long enough to solubilize the PA while limiting steric repulsion among assembled molecules (PA1, FIG. 2A). The PA was synthesized by coupling the PEG amino acid to a rink-amide resin and completing the peptide using standard Fmoc solid phase peptide synthesis, leaving an uncharged amide group after cleavage from the resin. […]

[3] = tested on: Human mesenchymal stem cells; experiment: Alkaline phosphatase (ALP) activity, osteogenic differentiation; assay type: cell-based; conditions: human MSCs, one week
Experimental: Alkaline Phosphatase Activity: Human mesenchymal stem cells were obtained from Lonza and maintained in Mesenchymal Stem Cell Growth Media (Lonza). Cells were used for experiments prior to passage 6. Cells were trypsinized and resuspended in growth media containing high glucose DMEM supplemented with 10% FBS and 1% penicillin/streptomycin and 50 mg/L sodium ascorbate. 500 μl of the cell suspension was placed in each well of a 24 well plate and incubated for 24 hours. Media was removed and replaced with 540 μl of growth media or osteogenic media containing low glucose DMEM supplemented with 10% FBS, 50 mg/L sodium ascorbate 10 mM 3-glycerophosphate, and 100 nM dexamethasone. 60 μl of a 10 times concentrated PA solution in PBS was then added to each well. Every 3-4 days, media was replaced by removing 300 μl media and adding 270 μl growth media or osteogenic media and 30 μl of the 10 times concentrated PA solution in PBS. Alkaline phosphatase (ALP) activity was determined using the SensoLyte pNPP ALP Assay Kit (Anaspec, Fremont, CA) according to the manufacturer's instructions. […] The supernatant was mixed with the assay's detection buffer in a microplate and the optical absorbance was read after a four-hour incubation using a Cytation 3 microplate reader. […]

[4] = Nile red assay of aggregation; assay type: physicochemical; conditions: buffers of 0 mM, 15 mM and 150 mM NaCl
Experimental: Nile Red Assay: Following heat treatment, PA solutions were serially diluted in water (0 mM NaCl), or a buffer of 15 mM NaCl, or 150 mM NaCl. A solution of 100 μM Nile red was added to the PA solutions to one thousandth the total volume and incubated for 1 hour. The fluorescence spectrum was read from 600 nm to 700 nm using a BioTek Cytation 3 microplate reader using 560 nm excitation and the fluorescence shift was determined by subtracting the maximum […] wavelength for each sample from that of the dye solution diluted in each buffer alone.

[5] = Zeta potential of PA solutions; assay type: physicochemical; conditions: for surface charge (zeta-potential), sign: neutral pH
Experimental: Zeta potential: Heat-treated PA solutions were diluted 20 times in 30 mM NaCl with 10 mM HCl, 30 mM NaCl, or 30 mM NaCl with 10 mM NaOH for pH 2, pH 7, and pH 12 respectively. For each PA, three separate samples were prepared at each pH. Samples were loaded in a disposable folded capillary cell and zeta-potential was measured at 25° C. using a Zetasizer Nano ZS (Malvern Instruments, Malvern, UK). The average of the three measurements for each sample was plotted.

Compound	viability at 36 h [1]	aggregation as indicated by redshift in Nile red fluorescence, dependence on ionic strength [4]	surface charge (zeta-potential), sign [5]	also measured
CCCCCCCCCCCCCCCC(=O)N[C@H](C(=O)N[C@H](C(=O)N[C@@H](C)C(=O)N[C@@H](C)C(=O)NCCOCCOCCOCCOCCOCCOCCOCCOCCOCCOCCC(N)=O)C(C)C)C(C)C [PA1] (Palmitoyl-VVAA[PEG10]-NH2)	> 85%			solubility in water (resuspension) [2]: readily resuspended in water
CCCCCCCCCCCCCCCC(=O)N[C@H](C(=O)N[C@H](C(=O)N[C@@H](C)C(=O)N[C@@H](C)C(=O)N[C@@H](CCC(=O)O)C(=O)N[C@@H](CCC(=O)O)C(N)=O)C(C)C)C(C)C [PA2] (Palmitoyl-VVAAEE-NH2)	> 85%	depended on ionic strength of the buffer	negatively	ALP activity (osteogenic differentiation) in growth media ([3]; growth media, various PA concentrations): increased with increasing PA2 concentration; ALP activity (osteogenic differentiation) in osteogenic media ([3]; osteogenic media with dexamethasone and β-glycerophosphate): did not affect differentiation
CCCCCCCCCCCCCCCC(=O)N[C@H](C(=O)N[C@H](C(=O)N[C@@H](C)C(=O)N[C@@H](C)C(=O)N[C@@H](CCCCN)C(=O)N[C@@H](CCCCN)C(N)=O)C(C)C)C(C)C [PA3] (Palmitoyl-VVAAKK-NH2)		less dependent on ionic strength than PA2	positively charged	EC50 at 36 h ([1]; Normal Human Lung Fibroblasts (nHLF)): 25 ± 4 µM
N-palmitoyl-VVAAEE-PEG10 [PA4]				Zeta-potential (surface charge) ([5]; pH 2): ~0 mV
N-palmitoyl-VVAAKK-PEGio [PA5]				Zeta-potential (surface charge) ([5]; pH 12): ~0 mV
